Experiments:
[1] = tested on: crebbp and ep300 expression; test: Gene expression analysis by RT-qPCR in LP1 cells; format: cell-based; settings: 16 h, 1 μM, normalized to hprt
Experimental: cooperativity factor (α) was defined as the ratio of the IC50 values in the absence and […]
For the ternary complex experiments, the final assay composition was: 0.1 % DMSO, 5 nM GST-CBP, 5 nM CRBN-Avi(biotin), 100 mM KF, 0.625 nM XL665-Streptavidin conjugate and 0.8 nM anti-GST mAb – Eu3+-cryptate. The maximal control contained 40 nM dCBP-1, the blank contained no PROTAC. Hook curves were generated by normalization to the maximal control.
LP1 cells were cultured in DMEM (Gibco, 41966-029) supplemented with 15 % FBS (Sigma, F9665); MM1S and LNCaP cells in RPMI 1640 ATCC modification (Gibco, […]
DMEM/F12 (Gibco, 11320074) supplemented with 1 % non-essential amino acids […]
Quantification of CBP/EP300 degradation by Western blotting
LP1 cells plated on 6 well plates were treated with the stated compounds at a final concentration of 0.1 % DMSO for the stated time. […] Protein concentrations were determined using the Pierce ™ BCA Protein Assay Kit (Thermo Scientific, 23227) and equal amounts were separated on 4-12 % ExpressPl us™ PAGE gels (GenScript, M41215). […]
SuperSignal™ West Pico PLUS Chemiluminescent Substrate (Thermo Scientific, 34580) and the Vilber Fusion-FX7 imager. Bands were quantified using ImageJ software and protein levels normalized to protein from DMSO treated cells run on the same membrane. […]

[2] = molecular target: CBP-BRD (Homo sapiens, UniProt Q92793); test: BROMOscan ligand binding site-directed competition assay, CBP; set-up: T7 phage display fusion with DNA tag for qPCR; purchased Eurofins Discovery (BROMOscan service); host or cells: E. coli infected with T7 phage
Experimental: 2. Methods and General Procedures […]
KD values were determined using BROMOscan™ technology, carried out by Eurofins […]
Discovery according to their standard protocol. Briefly E. coli were infected with T7 phage […]
strains displaying bromodomains and bromodomain protein was subsequently purified […]
through lysis, centrifugation and filtration. Affinity resins were generated by incubation of […]
streptavidin-coated magnetic beads with biotinylated small molecules or acetylated […]
peptide ligands. Binding reactions were assembled by combining the bromodomains and […]
liganded affinity beads in binding buffer (17 % SeaBlock, 0.33x PBS, 0.04 % Tween 20, […]
0.02 % BSA, 0.004 % sodium azide and 7.4 mM DTT) with compounds (11-point, 3-fold […]
dilution series) added to give a final DMSO concentration of 0.09 %. Assay plates were […]
incubated for 1 h, prior to washing and elution of beads. The bromodomain concentration […]
in the eluates was measured by qPCR of the DNA tag on the bromodomain.
KD values were calculated with a standard dose-response curve fitted using the Hill […]
Response = Background + Signal − Background […]
The Hill Slope was set to -1 and curves fitted using a non-linear least square fit with the Levenberg-Marquardt algorithm.
Ligand efficiency (LE) was calculated as follows: LE = 1.4(pIC50)/N

Sequence of CBP-BRD (Q92793 1085-1192 limits assumed): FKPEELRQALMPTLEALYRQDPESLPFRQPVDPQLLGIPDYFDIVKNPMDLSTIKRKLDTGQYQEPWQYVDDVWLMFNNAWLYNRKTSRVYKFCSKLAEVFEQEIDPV

## Cc1cc2c(NC(=O)c3cc(NC(=O)CCCCCCCCCCNc4cccc5c4C(=O)N(C4CCC(=O)NC4=O)C5=O)cc(-c4ccn(C)n4)c3)cccc2nn1 (stereo not drawn) [dCE-2]
[1]
  crebbp and ep300 expression: mild upregulation
[2]; BROMOscan
  Kd: 1300 nM
[2]; BROMOscan KD ratio
  loss of potency compared to parent compound 3, CBP: > 40 fold

Source: paper PMC11423305, “Structure-Based Design of CBP/EP300 Degraders: When Cooperativity Overcomes Affinity” (JACS Au, 2024)
